Assay results as given in PMC9434700 (Journal of medicinal chemistry, 2022).

Test system: mGluR2
Conditions: monkey thalamus, compound 2 0.5 mg/kg iv 10 min before tracer

`Cc1c(OCc2cccc(-c3ccc(C(=O)O)cc3)c2)cc2c(c1C)C(=O)C(C1CCCC1)C2` (stereo not shown) [Compound 2, Biphenyl-indanone A] was tested, and the “enhancement of [18F]9 Logan VT after pretreatment” value was ~ 3.3%.
